Where a name gives a salt, the structure may show the parent alone.
Experiments:
Acute toxicity = conditions: mouse, in vivo, ip; mice, intraperitoneal, 48 hours after administration
Description: The LD50, the dose at which 50% of the mice died after the intraperitoneal administration of the products to mice was determined 48 hours after the administration.

[1] = tested on: rigidity provoked by reserpine; test: Antagonism with respect to reserpinic rigidity; assay type: in vivo; parameters: key to Antagonism to reserpinic rigidity for a determined dose in mg/kg: ++: It was expressed by an increasing number of + signs for a given dose expressed in mg/kg; conditions: rat; for Antagonism to reserpinic rigidity for a determined dose in mg/kg: reserpine 10 mg/kg i.v., E.M.G.
Description: The antagonism of the compounds with respect to reserpinic rigidity [Jurna I: Arch. Pharmak. Exp. Path. Vol. 260 (1968), p. 80-88] was studied on the rat. The tests consisted of recording, by means of electrodes placed on the muscles of the anterior cavity of one of the rear paws of the animal, the electromyogram (E.M.G.) provoked by a dorsiflection of the instep. A dose of 10 mg/kg of reserpine was administered intraveneously, then, one half hour later when the hypertonicity of the muscle was maximal, the product to be studied was administered in the same way at a dose of 10 mg/kg or of 20 mg/kg.
The electromyographic responses obtained before and after treatment, were compared in intensity and in time. The inhibition observed on the electromyogram expressed the antagonism exercised by the product with respect to the rigidity provoked by reserpine. It was expressed by an increasing number of + signs for a given dose expressed in mg/kg.

[2] = tested on: stereotypies provoked by dexamphetamine; test: Potentiation of stereotypies provoked by dexamphetamine; assay type: in vivo; parameters: Potentiation of stereotypies provoked by dexamphetamine for a determined dose in mg/kg: key to the marks not given beside the values; conditions: rats; for Potentiation of stereotypies provoked by dexamphetamine for a determined dose in mg/kg: dexamphetamine sulfate 3 mg/kg i.p.
Description: Each animal was placed individually in a grilled cage (29×25 ×17 cm) containing a few wood shavings. A does of 3 mg/kg of dexamphetamine sulfate was injected intraperitoneally one half hour after the intraperitoneal administration of the product studied. The behavior of the animals was noted every half hour for 5 hours with the rating recommended by […] et al [Brit. J. Pharmacol., Vol. 23 (1964), p. 330-350]. The animalis asleep (0), he is awake but immobile (1), he is turning in his cage (2), he is sniffing the lid (3), he is licking the sides (4), he is touching the shavings or the bars of the cage with his teeth (5), he is biting the chips or bars of the cage (6). The total of the scores per group at different periods after the administration of the product studied was determined and the potentiation of the stereotypies evaluated at the height of the effect is expressed by an increasing number of + signs for a given dose.

[3] = tested on: catalepsy provoked by prochlorpemazine; test: Antagonism of catalepsy provoked by prochlorpemazine; assay type: in vivo; parameters: key to Antagonism of catalepsy provoked by prochloropemazine for a determined dose in mg/kg: evaluated at the height of the effect was expressed by an increasing number of + signs for a given dose; ++: evaluated at the height of the effect was expressed by an increasing number of + signs for a given dose; +++: evaluated at the height of the effect was expressed by an increasing number of + signs for a given dose; conditions: rats; for Antagonism of catalepsy provoked by prochloropemazine for a determined dose in mg/kg: prochlorpemazine 15 mg/kg i.p.; for antagonism toward the cataleptigenic activity of prochlorpemazine: in words, i.p.
Description: The tests are carried out on groups of 5 young rats weighing about 100 g and the cataleptigenic agent used is prochlorpemazine at a dose of 15 mg/kg intraperitoneally. The product studied was administered simultaneously in the same way. The intensity of the catalepsy was evaluated by the test of crossing of the homolateral paws [BOISSIER et al, Therapie, Vol. 18 (1963), p. 1257] every hour for 7 hours. The rating adopted is the following: the animal refuses the crossing of the front paws with the homolateral rear paws (0), he retains the desired crossing on one side only (0.5), he accepts the crossing on both sides (1). The sum of the scores by groups read at different periods after the administration of the product studied is determined. The antagonism of catalepsy provoked by prochlorpemazine evaluated at the height of the effect was expressed by an increasing number of + signs for a given dose and the results are reported in Table II.

mice = test: Anorexigenic activity in mice; assay type: in vivo; conditions: 20 mg/kg i.p., food intake over following 24 hours
Description: The anorexigenic activity was studied with mice and the animals receive the product studied intraperitoneally 30 minutes before the start of the test. The quantities of nourishment absorbed in the course of the following 24 hours was noted and compared with the quantity of nourishment absorbed in the course of the same period by animals not receiving the product studied. The anorexigenic activity was expressed by an increasing number of + signs for a given dose expressed in mg/kg.

dog = test: Anorexigenic activity in the dog; assay type: in vivo; conditions: administered in the first ball, 7 hours
Description: The anorexigenic activity was studied on the dog using the method of ADAMS et al [J. Pharm. Sci., Vol. 53 (1964), p. 1405]. On the day of the test of a substance presumed to be anorexigenic, the individual daily ration of the animals was broken down into substantially equal balls (10 to 20 g) which were offered to the dogs every 10 minutes for 7 hours. Normally, the animals regularly accept the successive balls offered to them. Refusal translates the anorexiant effectiveness of the compound studied which was administered in the first ball. The anorexigenic activity was expressed by an increasing number of + signs for a given dose expresses in mg/kg.

Row | SMILES | LD50 at 48 h (Acute toxicity) [mg/kg] | Antagonism to reserpinic rigidity for a determined dose in mg/kg ([1]; 20 mg/kg i.v.) | Potentiation of stereotypies provoked by dexamphetamine for a determined dose in mg/kg ([2]; 2 mg/kg i.p.) | Antagonism of catalepsy provoked by prochloropemazine for a determined dose in mg/kg ([3]; 20 mg/kg i.p.) | Potentiation of stereotypies provoked by dexamphetamine for a determined dose in mg/kg ([2]; 20 mg/kg i.p.) | anorexigenic activity (mice) | anorexigenic activity (dog; 20 mg/kg) | antagonism toward the cataleptigenic activity of prochlorpemazine [3] | anorexigenic activity (dog; 25 mg/kg) | Antagonism to reserpinic rigidity for a determined dose in mg/kg ([1]; 10 mg/kg i.v.) | Antagonism to reserpinic rigidity ([1]; in words, i.v.) | Potentiation of stereotypies provoked by dexamphetamine for a determined dose in mg/kg ([2]; 0.2 mg/kg i.p.) | activity of potentiation of stereotypies provoked by dexamphetamine ([2]; in words, i.p.) | Antagonism of catalepsy provoked by prochloropemazine for a determined dose in mg/kg ([3]; 50 mg/kg i.p.)
1 | CN1CCCC(c2cccc(C(F)(F)F)c2)C1.Cl (stereo not drawn) [Example 3, N-methyl-3-(m-trifluoromethylphenyl)-piperidine hydrochloride] | ~100 | ++ | ++ | + |  |  |  |  |  |  |  |  |  | 
2 | FC(F)(F)c1cccc(C2CCCN(Cc3ccccc3)C2)c1 (stereo not drawn) [Example 6, N-benzyl-3-(m-trifluoromethylphenyl)-piperidine hydrochloride] | ~150 |  |  |  | ++ |  |  |  |  |  |  |  |  | 
3 | Cl.FC(F)(F)c1cccc(C2CCCNC2)c1 (stereo not drawn) [Example 1, 3-(m-trifluoromethylphenyl)-piperidine hydrochloride] | ~150 | ++ |  | ++ |  | + | + | substantial antagonism |  |  |  |  |  | 
4 | CC(C)N1CCCC(c2cccc(C(F)(F)F)c2)C1.Cl (stereo not drawn) [Example 4, N-isopropyl-3-(m-trifluoromethylphenyl)-piperidine hydrochloride] | ~100 |  |  |  |  | + |  | substantial antagonism | + | ++ | very high activity | +++ | very high activity | +++

Source: patent US4259337A, “Method for using m-trifluoromethylphenyl-piperidines” (Roussel Uclaf, priority 1976, dated 1981)
